Data reported in US20220274947A1, “NOVEL HETEROARYL-TRIAZOLE COMPOUNDS AS PESTICIDES” (Bayer Aktiengesellschaft, priority 2019, published 2022).

Experiments:
Format in all cases: in vivo
[1] = system: Spodoptera frugiperda; assay: Spodoptera frugiperda spray test; conditions: in Zea mays, 168 h, read-out: activity (mortality)
How it was run: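 Percent kill of fall armyworm caterpillars was assessed 7 days after infesting dried, treated maize leaf sections. Treatment was a spray of compound in acetone/dimethylformamide, diluted with water containing emulsifier at 1000 ppm.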

[2] = system: Rhipicephalus microplus; assay: Rhipicephalus (Boophilus) microplus in-vitro contact test, larval cattle tick, strain Parkhurst (BOOPMI Cont); conditions: application rate 5 μg/cm^2 (=500 g/ha), tick larvae, after 48 hours, read-out: activity (efficacy: 100% means all larvae are dead or moribund)
How it was run: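 After 48 h at 27° C. and 85% humidity, percent dead or moribund larvae was scored from negative geotactic behaviour. Larvae (20-50, Parkhurst strain, synthetic pyrethroid-resistant) were exposed in tubes coated with compound from acetone, 900 ppm corresponding to 5 μg/cm^2.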

[3] = system: Diabrotica balteata; assay: Diabrotica balteata spray test; conditions: 168 h, wheat seeds, larvae, after 7 days, read-out: activity (efficacy: 100% means all seedlings have grown up like in the untreated, uninfected control); for pest or weed control at 32 µg/disc, 100 g/ha: application rate 100 g/ha (=32 μg/well); for pest or weed control at 160 µg/disc, 500 g/ha: application rate 500 g/ha (=160 μg/well)
How it was run: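 Efficacy (%) was scored 7 days after spraying, with 100% meaning growth like the untreated, uninfected control and 0% meaning no seedling grew. Spray solutions of compound in acetone/DMF with emulsifier-containing water went onto 1-day-germinated wheat seeds, and each unit was then infested with 10-20 banded cucumber beetle larvae.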

[4] = system: Ctenocephalides felis; assay: Ctenocephalides felis in-vitro contact test, adult cat flea (CTECFE Cont); conditions: application rate 5 μg/cm^2 (=500 g/ha), adult cat fleas, after 48 hours, read-out: activity (efficacy: 100% means all fleas are dead or moribund)
How it was run: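 Efficacy, as percent of fleas dead or moribund, was scored 48 h after adults (5-10 per tube) were placed in glass tubes whose walls carried dried compound at 5 μg/cm^2 (900 ppm solution). Moribund meant failing to climb away from a 45-50° C. hot plate within 5 min.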

[5] = system: Nezara viridula; assay: Nezara viridula spray test; conditions: in Hordeum vulgare, 96 h, barley plants, larvae, after 4 days; for mortality at 100 g/ha: application rate 100 g/ha; for mortality at 500 g/ha: application rate 500 g/ha
How it was run: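 Mortality was read at day 4 (0% = no kill, 100% = total kill) after spraying larva-infested barley plants. Test solutions were made from an acetone/DMF concentrate diluted with water holding 1000 ppm alkylarylpolyglycol ether emulsifier.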

[6] = system: Rhipicephalus microplus; assay: Rhipicephalus (Boophilus) microplus injection test (BOOPMI Inj); conditions: 168 h, injection into adult engorged female ticks, egg deposition after 7 days, read-out: activity (efficacy: 100% means all eggs are infertile); for pest or weed control at 0.004 mg: application rate 4 μg/tick; for pest or weed control at 0.02 mg: application rate 20 μg/tick
How it was run: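 Compound in DMSO, 1 μL, injected abdominally into five adult engorged females, which were then held in a climate chamber. Read-out is egg fertility, scored from deposition at 7 days, with unclear eggs followed to hatching (~42 days); 0% means all eggs fertile, 100% all infertile.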

[7] = system: Culex quinquefasciatus strain P00; assay: Culex quinquefasciatus test (CULXFA surface treatment & contact assay); conditions: exposure 30 minutes, 24 hours after contact, read-out: efficacy (mortality); for mortality at 20 mg/m2: surface concentration 20 mg/m^2, glazed tile; for mortality at 4 mg/m2: surface concentration 4 mg/m^2, glazed tile
Experimental: Culex quinquefasciatus Test (CULXFA Surface Treatment & Contact Assay) Solvent: Aceton+2000 ppm rapeseed oil methyl ester (RME)
In order to produce a sufficient, active ingredient containing solution it is necessary to solve the test compound in the solvent-mix (acetone at 2 mg/ml/RME 2 000 ppm). This solution is pipetted onto a glazed tile and after evaporation of the acetone, adult mosquitoes of the species Culex quinquefasciatus strain P00 are placed onto the dried surface. The exposure time is 30 minutes. Mortality in percent (%) is determined 24 hours after contact of the insects to the treated surface. 100% mortality means that all tested insects are dead, whereas 0% means that no insect died.

[8] = system: Ctenocephalides felis; assay: Ctenocephalides felis oral test (CTECFE Oral); conditions: 48 h, read-out: activity (mortality)
How it was run: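 Percent mortality was recorded 2 days after roughly 20 adult Ctenocephalides felis fed on treated cattle blood. The blood was warmed to 37 °C beneath a parafilm membrane, with the fleas kept at room temperature. Compound was dissolved in DMSO and diluted into the blood to test concentration.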

| SMILES | mortality at 100 g/ha [1] [%] | mortality at 500 g/ha [1] [%] | pest or weed control at 5 µg/cm2 [2] [%] | pest or weed control at 32 µg/disc, 100 g/ha [3] [%] | pest or weed control at 160 µg/disc, 500 g/ha [3] [%] | pest or weed control at 5 µg/cm2 [4] [%] | mortality at 100 g/ha [5] [%] | mortality at 500 g/ha [5] [%] | pest or weed control at 0.004 mg [6] [%] | pest or weed control at 0.02 mg [6] [%] | mortality at 20 mg/m2 [7] [%] | mortality at 4 mg/m2 [7] [%] | mortality at 100 ppm [8] [%] |
| --- | --- | --- | --- | --- | --- | --- | --- | --- | --- | --- | --- | --- | --- |
| C[C@H](NC(=O)c1cc(C(F)(F)F)cc(C(F)(F)F)c1)c1ncnn1-c1ccc(C(=O)NC2CC2)cn1 [II-37] | 100 | 100 | 100 | 100 | 100 | 100 | 90 | 100 | 100 | 100 | 80 to 100 |  |  |
| C[C@H](NC(=O)c1cc(C(F)(F)F)cc(C(F)(F)F)c1)c1ncnn1-c1ccc(C(=O)N(C)C2CC2)cn1 [II-38, 6-(5-{(1S)-1-[3,5-bis(trifluoromethyl)benzamido]ethyl}-1H-1,2,4-triazol-1-yl)-N-cyclopropyl-N-methylnicotinamide] | 100 | 100 | 100 | 100 | 100 | 100 | 100 | 100 | 100 | 100 | 80 to 100 |  |  |
| C[C@H](NC(=O)c1cc(C(F)(F)F)cc(C(F)(F)F)c1)c1ncnn1-c1ncc(Cl)s1 [II-40] | 100 | 100 | 100 | 100 | 100 | 100 | 100 | 100 | 100 | 100 | 80 to 100 | 80 to 100 |  |
| C[C@H](NC(=O)c1cc(C(F)(F)F)cc(C(F)(F)F)c1)c1ncnn1-c1ncc(Br)s1 [II-41] | 100 |  | 100 | 100 | 100 |  | 90 |  | 100 | 100 | 80 to 100 | 80 to 100 |  |
| C[C@H](NC(=O)c1cc(Cl)cc(C(F)(F)F)c1)c1ncnn1-c1cc(-n2cncn2)ccn1 [II-43] | 100 | 100 | 100 | 100 | 100 | 100 |  |  | 100 | 100 |  | 80 to 100 |  |
| Cc1nc([C@H](C)NC(=O)c2cc(Cl)cc(Br)c2)n(-c2ccc(C#N)cn2)n1 [II-50] | 100 |  | 100 | 100 |  | 100 |  |  | 100 | 100 |  | 80 to 100 | 100 |
| Cc1nc([C@H](C)NC(=O)c2cc(Br)cc(Br)c2)n(-c2ccc(C#N)cn2)n1 [II-52] | 100 |  | 100 | 100 |  | 100 |  |  | 100 | 100 |  | 80 to 100 | 100 |
| CCN(C)C(=O)c1ccc(-n2nc(C)nc2[C@H](C)NC(=O)c2cc(C(F)(F)F)cc(C(F)(F)F)c2)nc1 [II-97] | 100 |  | 100 | 100 |  | 100 | 100 |  | 100 |  |  |  | 100 |
